Measurements reported in patent publication US8148373B2, “Compounds” (AstraZeneca AB, priority 2008, dated 2012).
Counter-ions that a name gives are not always drawn.

Assays:
[1] = molecular target: T1, Adrenergic β2 (H292 cells) (Homo sapiens, UniProt P07550); assay: Assay for Adrenergic β2 Mediated cAMP Production (concentration response, AlphaScreen cAMP detection); format: cell-based; settings: for EC50: cAMP production, 60 minutes at room temperature, 300 μM rolipram, read-out: β2 pEC50 (converted); for β2 Intrinsic activity: fraction relative to the maximum activity determined for formoterol
T1 construct: endogenous in cells; host or cells: H292 cells
T1 sequence (P07550 whole entry): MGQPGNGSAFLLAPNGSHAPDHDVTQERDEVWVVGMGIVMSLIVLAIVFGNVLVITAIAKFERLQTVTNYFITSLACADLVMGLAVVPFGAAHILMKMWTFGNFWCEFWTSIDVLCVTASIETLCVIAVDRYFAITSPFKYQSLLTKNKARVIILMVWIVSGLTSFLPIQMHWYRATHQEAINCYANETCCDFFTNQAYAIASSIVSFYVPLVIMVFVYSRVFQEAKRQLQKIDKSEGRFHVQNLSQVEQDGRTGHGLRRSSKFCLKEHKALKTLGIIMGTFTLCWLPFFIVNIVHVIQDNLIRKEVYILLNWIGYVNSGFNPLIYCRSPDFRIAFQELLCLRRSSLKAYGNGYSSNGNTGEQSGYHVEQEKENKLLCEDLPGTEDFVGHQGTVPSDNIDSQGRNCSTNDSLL
Experimental: Assay for Adrenergic β2 Mediated Camp Production
H292 cells are grown in 225 cm2 flasks incubator at 37° C., 5% CO2 in RPMI medium containing 10% (v/v) FBS (foetal bovine serum) and 2 mM L-glutamine.
Adherent H292 cells are removed from tissue culture flasks by treatment with Accutase™ cell detachment solution for 15 minutes. Flasks are incubated for 15 minutes in a humidified incubator at 37° C., 5% CO2. Detached cells are re-suspended in RPMI media (containing 10% (v/v) FBS and 2 mM L-glutamine) at 0.1×10^6 cells per mL. 10000 cells in 100 μL are added to each well of a tissue-culture-treated 96-well plate and the cells incubated overnight in a humidified incubator at 37° C., 5% CO2. The culture media is removed and cells are washed twice with 100 μL assay buffer and replaced with 50 μL assay buffer (HBSS solution containing 10 mM HEPES pH7.4 and 5 mM glucose). Cells are rested at room temperature for 20 minutes after which time 25 μL of rolipram (1.2 mM made up in assay buffer containing 2.4% (v/v) dimethylsulphoxide) is added. Cells are incubated with rolipram for 10 minutes after which time test compounds are added and the cells are incubated for 60 minutes at room temperature. The final rolipram concentration in the assay is 300 μM and final vehicle concentration is 1% (v/v) dimethylsulphoxide. The reaction is stopped by removing supernatants, washing once with 100 μL assay buffer and replacing with 50 μL lysis buffer. The cell monolayer is frozen at −80° C. for 30 minutes (or overnight).
AlphaScreen™ cAMP Detection
The concentration of cAMP (cyclic adenosine monophosphate) in the cell lysate is determined using AlphaScreen™ methodology. The frozen cell plate is thawed for 20 minutes on a plate shaker then 10 μL of the cell lysate is transferred to a 96-well white plate. 40 μL of mixed AlphaScreen™ detection beads pre-incubated with biotinylated cAMP, is added to each well and the plate incubated at room temperature for 3 hours in the dark. The AlphaScreen™ signal is measured using an EnVision spectrophotometer (Perkin-Elmer Inc.) with the recommended manufacturer's settings. cAMP concentrations are determined by reference to a calibration curve determined in the same experiment using standard cAMP concentrations. Concentration response curves for agonists are constructed and data is fitted to a four parameter logistic equation to determine both the pEC50 and Intrinsic Activity. Intrinsic Activity is expressed as a fraction relative to the maximum activity determined for formoterol in each experiment.

[2] = molecular target: T2, human muscarinic acetylcholine M3 receptor (M3-ACh) (Homo sapiens, UniProt P20309); assay: Muscarinic 3 Receptor Binding Assay ([3H]NMS competition, SPA); settings: [3H]NMS 0.1 nM, CHO-K1 cell membranes, 16 hours at room temperature; read-out: M3 pIC50 (converted)
T2 construct: expressed in transfected cells; host or cells: CHO-K1 (Chinese Hamster Ovary) cell membranes
T2 sequence (P20309 whole entry): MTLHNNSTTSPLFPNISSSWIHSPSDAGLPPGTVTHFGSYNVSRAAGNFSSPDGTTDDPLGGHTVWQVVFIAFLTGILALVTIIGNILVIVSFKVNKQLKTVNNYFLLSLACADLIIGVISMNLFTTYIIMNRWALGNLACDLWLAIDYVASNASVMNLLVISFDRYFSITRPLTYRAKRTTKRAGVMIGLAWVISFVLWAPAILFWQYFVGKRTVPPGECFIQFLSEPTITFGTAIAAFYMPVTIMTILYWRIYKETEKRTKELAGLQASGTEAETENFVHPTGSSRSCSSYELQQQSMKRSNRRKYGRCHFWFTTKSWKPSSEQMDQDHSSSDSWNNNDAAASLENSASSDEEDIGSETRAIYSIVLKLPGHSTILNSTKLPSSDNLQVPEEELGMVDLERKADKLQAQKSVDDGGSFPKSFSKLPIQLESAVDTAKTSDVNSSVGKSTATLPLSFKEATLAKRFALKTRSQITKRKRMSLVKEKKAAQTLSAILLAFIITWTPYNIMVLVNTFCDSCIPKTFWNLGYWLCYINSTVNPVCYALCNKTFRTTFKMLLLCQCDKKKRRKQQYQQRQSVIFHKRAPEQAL
Experimental: Muscarinic 3 Receptor Binding Assay
The affinity (pIC50) of compounds binding to the M3 receptor is determined by competition binding of [^3H]N-methyl scopolamine (NMS) to CHO-K1 (Chinese Hamster Ovary) cell membranes expressing the human muscarinic acetylcholine M3 receptor (M3-ACh) in a scintillation proximity assay (SPA) format.
SPA beads are precoated with membranes and then incubated at 2 mg of beads per well with serial dilutions of compounds of the invention, [^3H]NMS at 0.1 nM, quarter Kd (experimentally determined dissociation constant) and assay buffer (20 mM HEPES pH 7.4 containing 5 mM MgCl2). The assay is conducted in a final volume of 200 μL, in the presence of 1% (v/v) dimethyl sulphoxide (DMSO). Total binding of [^3H]NMS is determined in the absence of competing compound and non-specific binding of [^3H]NMS is determined in the presence of 1 μM atropine. The plates are incubated for 16 hours at room temperature and then read on Wallac Microbeta™ using a normalised ^3H protocol. The pIC50, defined as the negative logarithm of the molar concentration of compound required for 50% reduction in specific [^3H]-NMS binding, is determined.

Row | Structure (SMILES) | EC50 [1] [nM] | β2 Intrinsic activity [1] | IC50 [2] [nM]
1 | Cc1nc(C(=O)N2CCOC3(CCN(Cc4cccc(CCNCC(O)c5ccc(O)c6c5OCC(=O)N6)c4)CC3)C2)cs1 (single isomer, unassigned; isomer 1) [Example 11, 5-Hydroxy-8-(1-hydroxy-2-(3-((4-(2-methylthiazole-4-carbonyl)-1-oxa-4,9-diazaspiro[5.5]undecan-9-yl)methyl)phenethylamino)ethyl)-2H-benzo[b][1,4]oxazin-3(4H)-one ditrifluoroacetate, Isomer 1] | 1.58 | 0.8 | 0.1
2 | Cc1nc(C(=O)N2CCOC3(CCN(Cc4cccc(CCNCC(O)c5ccc(O)c6c5OCC(=O)N6)c4)CC3)C2)cs1 (single isomer, unassigned; isomer 2) [Example 13, 5-Hydroxy-8-(1-hydroxy-2-(3-((4-(2-methylthiazole-4-carbonyl)-1-oxa-4,9-diazaspiro[5.5]undecan-9-yl)methyl)phenethylamino)ethyl)-2H-benzo[b][1,4]oxazin-3(4H)-one ditrifluoroacetate, Isomer 2] | 39.8 | 0.8 | 0.0794
3 | Cc1nc(C(=O)N2CCOC3(CCN(CCOc4ccc(CNC[C@H](O)c5ccc(O)c6[nH]c(=O)sc56)cc4)CC3)C2)cs1 [Example 1, (R)-4-Hydroxy-7-(1-hydroxy-2-(4-(2-(4-(2-methylthiazole-4-carbonyl)-1-oxa-4,9-diazaspiro[5.5]undecan-9-yl)ethoxy)benzylamino)ethyl)benzo[d]thiazol-2(3H)-one ditrifluoroacetate] | 63.1 | 0.8 | 3.16
4 | Cc1nc(C(=O)N2CCOC3(CCN(CCCCCCCCCNC[C@H](O)c4ccc(O)c5[nH]c(=O)sc45)CC3)C2)cs1 [Example 2, (R)-4-Hydroxy-7-(1-hydroxy-2-(9-(4-(2-methylthiazole-4-carbonyl)-1-oxa-4,9-diazaspiro[5.5]undecan-9-yl)nonylamino)ethyl)benzo[d]thiazol-2(3H)-one ditrifluoroacetate] | 12.6 | 0.8 | 0.316
5 | Cc1nc(C(=O)N2CCOC3(CCN(CCOc4ccc(CCNC[C@H](O)c5ccc(O)c6[nH]c(=O)sc56)cc4)CC3)C2)cs1 [Example 3, (R)-4-Hydroxy-7-(1-hydroxy-2-(4-(2-(4-(2-methylthiazole-4-carbonyl)-1-oxa-4,9-diazaspiro[5.5]undecan-9-yl)ethoxy)phenethylamino)ethyl)benzo[d]thiazol-2(3H)-one dihydrochloride] | 7.94 | 1.0 | 1
6 | Cc1nc(C(=O)N2CCOC3(CCN(CCc4ccc(CCNC[C@H](O)c5ccc(O)c6[nH]c(=O)sc56)s4)CC3)C2)cs1 [Example 4, (R)-4-Hydroxy-7-(1-hydroxy-2-(2-(5-(2-(4-(2-methylthiazole-4-carbonyl)-1-oxa-4,9-diazaspiro[5.5]undecan-9-yl)ethyl)thiophen-2-yl)ethylamino)ethyl)benzo[d]thiazol-2(3H)-one ditrifluoroacetate] | 15.8 | 0.9 | 1.26
7 | Cc1nc(C(=O)N2CCOC3(CCN(CCc4ccc(CCNC[C@H](O)c5ccc(O)c6[nH]c(=O)sc56)cc4)CC3)C2)cs1 [Example 5, (R)-4-Hydroxy-7-(1-hydroxy-2-(4-(2-(4-(2-methylthiazole-4-carbonyl)-1-oxa-4,9-diazaspiro[5.5]undecan-9-yl)ethyl)phenethylamino)ethyl)benzo[d]thiazol-2(3H)-one ditrifluoroacetate] | 79.4 | 0.9 | 2.51
8 | Cc1nc(C(=O)N2CCOC3(CCN(Cc4cccc(CCNC[C@H](O)c5ccc(O)c6[nH]c(=O)sc56)c4)CC3)C2)cs1 [Example 6, (R)-4-Hydroxy-7-(1-hydroxy-2-(3-((4-(2-methylthiazole-4-carbonyl)-1-oxa-4,9-diazaspiro[5.5]undecan-9-yl)methyl)phenethylamino)ethyl)benzo[d]thiazol-2(3H)-one ditrifluoroacetate] | 3.98 | 0.9 | 0.316
